The results in this text go back to patent publication US20100028366A1, “SYNERGISTIC EFFECT BETWEEN A […] AND ANOTHER OXIDATIVE INDUCING SYSTEM FOR TREATING TUMORS” (priority 2005, published 2010).

What all share (format): cell-based, canine
For assay [1], the system named is W&Wlis cells. In words: Analysis of the type of death by flow cytometry (annexin V-FITC/propidium iodide). More on the design: unit not given here. The following applies: Table 5; Control cells; DIQ (300 μM); 32 hours. A general note: In flow cytometry, cells or beads pass a laser one at a time.
Assay [2] has as its system W&Wlis cells. The description is as above. More on the design: Necrosis / Apoptosis: unit not given here. As for the experimental part:
The annexin V-FITC and propidium iodide assay was performed in parallel by flow cytometry. The pattern of death of the system was analyzed when adding 5 mEU/ml of glucose oxidase and the combined therapy (5 mEU/ml of GO and 500 μg/ml of linamarin) at 48 hours, followed by the control of untreated cells and of the cells incubated with 500 μg/ml of linamarin at 96 hours. Furthermore, another group of cells was subjected to the same conditions except 10 mM of N-acetyl cysteine (NAC) were added. The cells treated with the combined therapy were subsequently studied at 48 hours in the absence and presence of 100 μM of Z-VAD-fmk, followed by the control of treatment of the cells with UV in the same conditions. Finally, the cells treated with the combined therapy were shown at 48 hours in the absence and presence of 300 μM of 1,5-isoquinolinediol (DIQ), observing that the pattern of death is not modified when PARP-1 is inhibited (FIG. 4).
10^5 W&Wlis cells were seeded in test tubes with a screw-on cap and flat side (Nunc). After 24 hours, different amounts of linamarin (50, 200 or 500 μg/ml) and glucose oxidase (5 mEU/ml) were added in the specified cases. In the appropriate assays, the medium was supplemented with N-acetyl cysteine (10 mM), 1,5-isoquinolinediol (300 μM) or Z-VAD-fmk (100 μM). […] They were centrifuged for 5 minutes at 1200 rpm and the cell precipitate was washed first with PBS and then with binding buffer (0.1 M Hepes/NaOH pH 7.4, 1.4 M NaCl and 25 mM CaCl2). The cells were again precipitated and resuspended in 100 μl of binding buffer supplemented with 5 μl of annexin V-FITC and 2.5 μg/ml of propidium iodide. The samples were incubated for 15 minutes in the dark. Data acquisition and analysis was carried out by means of a FACSCalibur flow cytometer (DB Biosciences) with the Cell Quest program.

Assay [3] concerns W&Wlis cells. The assay is described as follows: DNA content analysis by flow cytometry, labeling with propidium iodide. More on the design: unit not given here. The following applies: UV (24 hours), 12.5 J/m^2; Z-VAD-fmk 100 μM; UV Control = 66.14.
[4] abbreviates: Table 5, Control cells, DIQ (300 μM), 48 hours.
Where [5] appears, read: 0 μg lin, Without GO, 96 hours, NAC (10 mM).
Where [6] appears, read: Table 4, 0 μg lin, Without GO, 72 hours, Z-VAD-fmk (100 μM).

Peptide text beside a SMILES is read from it. * marks the point of attachment. Cbz = O=C(OCc1ccccc1)*; CH2F = FC*

Regarding `Oc1cccc2c(O)nccc12` [DIQ, 1,5-isoquinolinediol, reference compound], the values for the Necrosis in the assay on W&Wlis cells [1] and in the assay with W&Wlis cells [2] (setting [4]) were 17.62 and 29.59, respectively. The Apoptosis in the assay on W&Wlis cells [2] (Table 5, Control cells, DIQ (300 μM), 32 hours) came out at 8.15; in the assay with W&Wlis cells [2] (setting [4]), 20.16.
In the assay on W&Wlis cells [2] (setting [5]), `CC(=O)N[C@@H](CS)C(=O)O` [NAC, N-acetyl cysteine, reference compound] displayed an Apoptosis of 16.17 and a Necrosis of 13.46.
Turning to `COC(=O)C[C@H](NC(=O)[C@H](C)NC(=O)[C@@H](NC(=O)OCc1ccccc1)C(C)C)C(=O)CF` [Z-VAD-fmk, reference compound] (Cbz-Val-Ala-Asp(OMe)-CH2F), in the assay with W&Wlis cells [3], the “DNA content by flow cytometry, labeling with propidium iodide” value is “Z-VAD-fmk = 2.71”. In the assay with W&Wlis cells [2] (setting [6]), the Apoptosis was 2.66 and the Necrosis came to 37.25. The “inhibition of UV radiation-induced apoptosis” value with W&Wlis cells [2] (Z-VAD-fmk (100 μM), UV 12.5 J/m^2, DNA content and annexin V-FITC/propidium iodide) is on record as “complete inhibition”.
